Assays:
CT26 tumors = test: CT26 tumor model: ALK5 inhibitor with chemoradiation (RT+5FU), tumor growth and survival; assay type: in vivo, mouse; settings: CT26 tumor-bearing mice, LY added to RT+5FU, FIG. 1B
Experimental: FIGS. 1A-1D are a series of panels showing that the TGFβR1 antagonist LY2157299 enhances chemo-radiation efficacy dependent on CD8α^+ cells in CT26 tumors. FIG. 1A is a treatment schema in the CT26 tumor model. Six to eight week old BALB/c mice were implanted subcutaneously in the left flank with 2×10^5 CT26 tumor cells. Seven days following implant, animals were randomized based on tumor size, and vehicle control or LY2157299 compound were administered by oral gavage twice daily every 12 hours at 150 mg/kg for 7 consecutive days. At day 14, some mice received five consecutive radiation treatments of 5 Gy targeted to tumor tissue along with 25 mg/kg injections of 5-fluorouracil (5FU) chemotherapy administered intraperitoneally on days 14, 16, and 18. LY treatment groups resumed BID oral dosing from days 21-27. Mean tumor growth (i) and survival (ii) were assessed three times per week up to 100 days or death (FIG. 1B). […] Arrows identify pSMAD2^+CD8^+ cells in vehicle mice. […] NS=not significant, *=p<0.05, **=p<0.01, ***=p<0.001.
FIGS. 6A-6D are a series of panels showing generation of tumor-specific immune memory following tumor eradication with TGFβ inhibition with chemoradiation. […] The number of mice cured over the total number of mice in each group is indicated in the top right corner. One representative experiment is shown reflective of two independent experiments. Mice who eradicated their tumors were rechallenged with CT26 and 4T1 tumors. CT26 tumor cells were rechallenged on the opposite flank as from the original cured tumor. In FIG. 6D, 4T1 and CT26 tumor establishment and growth was followed for up to 60 days post re-challenge. The number of tumors rejected per total mice rechallenged in each tumor type is indicated in the top right portion of the graph. ***=p<0.001
Animal studies and cell culture: C57BL/6, BALB/c, CD8Cre, Lyz2Cre, and Foxp3-eGFP-CreERT2 mice were purchased from the Jackson Laboratories (Bar Harbor, Maine). ALK5flox/flox mice were a generous gift from Andrew Weinberg (Providence Cancer Center). All transgenic mice were on C57BL/6 background. CT26, MC38, 4T1 and MCA205-OVA tumor cells were grown in DMEM medium supplemented with 10% heat-inactivated fetal bovine serum and 1% penicillin-streptomycin to 60-90% confluence prior to tumor implantation. All cells were washed 2× with 1×PBS and implanted subcutaneously in a 100 μl volume of 1×PBS in the lower flanks. 1×10^5 MC38 cells, 2×10^5 CT26 cells, 5×10^4 4 T1 cells, and 5×10^6 MCA205-OVA cells were used for tumor induction. Tumors were measured 3×/week until they reached the survival end-point of 144 mm^2. […] Following single cell preparation, cells were washed and resuspended in FACS buffer (1×PBS, 1% BSA, 2 mM EDTA) and counted prior to FACS staining using a Guava EasyCyte cytometer (Millipore). […]

[1] = tested on: tumor infiltrating immune cells; test: FACS analysis of tumor-infiltrating immune cells after LY treatment; assay type: in vivo, mouse
[2] = LY-treated vs vehicle animals, day 14, FIG. 8E

Cc1cccc(-c2nn3c(c2-c2ccnc4ccc(C(N)=O)cc24)CCC3)n1 [LY2157299]
median survival (CT26 tumors; 150 mg/kg BID oral, p<0.01): 45 days
tumor growth (CT26 tumors): significantly slowed tumor growth
tumor-infiltrating effector population (tSNE of flow cytometric data) ([1]; LY versus vehicle control treated animals, data not shown): enrichment of the tumor-infiltrating effector population
CD8^+ T cells infiltrating tumors [1, 2]: more CD8^+ T cells
macrophages and Tregs infiltrating tumors [1, 2]: fewer macrophages and Tregs
percentage of CD8^+ T cells expressing EOMES and Tbet ([1]; spleens, lymph nodes and CT26 tumors of LY-treated mice, FIG. 8F): increase

Reference: patent US12560591B2, “Methods of treatment with CD8 T cell-mediated immune therapy” (Providence Health & Services—Oregon, priority 2019, dated 2026)
